ChEMBL document CHEMBL1671708, “Hydroxymethylnitrofurazone is active in a murine model of Chagas' disease” (Antimicrob Agents Chemother, 2010)
Calls of active or inactive are those of the source. The rule behind the calls is not given here.

Columns and labels:
Trypanosoma cruzi [1] = assay: (§1) Antimicrobial activity against Trypanosoma cruzi Tulahuen infected in Swiss mouse assessed as reduction in reduction in parasite induced histopathological changes in skeletal muscle at 150 mg/kg/day, po for 6 days per week until completion of 60 compound doses administered 5 days post infection by hematoxylin-eosin staining; assay type: functional, organism-based
Trypanosoma cruzi [2] = assay: Antimicrobial activity against Trypanosoma cruzi Tulahuen infected in Swiss mouse assessed as parasite DNA level at 150 mg/kg/day, po for 6 days per week until completion of 60 compound doses administered 5 days post infection measured 180 days post dose by PCR amplification method; assay type: functional
Mus musculus [3] = assay: Toxicity in Swiss mouse infected with Trypanosoma cruzi Tulahuen assessed as occurrence of erected hair at 150 mg/kg/day, po for 6 days per week until completion of 60 compound doses administered 5 days post infection measured 2 weeks post dose; assay type: organism-based; design: route oral; settings: in vivo, 336 h
Trypanosoma cruzi [4] = assay: (§2) Antimicrobial activity against Trypanosoma cruzi Tulahuen infected in Swiss mouse assessed as reduction in blood parasite load at 150 mg/kg/day, po for 6 days per week until completion of 60 compound doses administered 5 days post infection; assay type: functional, organism-based
Mus musculus [5] = assay: Toxicity in Swiss mouse infected with Trypanosoma cruzi Tulahuen assessed as occurrence of inactivity at 150 mg/kg/day, po for 6 days per week until completion of 60 compound doses administered 5 days post infection measured 2 weeks post dose; assay type: organism-based; design: route oral; settings: in vivo, 336 h
Trypanosoma cruzi [6] = assay: Antimicrobial activity against Trypanosoma cruzi Tulahuen infected in Swiss mouse assessed as parasite DNA level at 150 mg/kg/day, po for 6 days per week until completion of 60 compound doses administered 5 days post infection measured 30 days post dose by PCR amplification method; assay type: functional
Trypanosoma cruzi [7] = assay: as §2, with “in” for “in blood”, “specific antibodies” for “load”, “infection measured 45 days post dose by ELISA based serological study” for “infection”; assay type: functional, organism-based
Mus musculus [8] = assay: Toxicity in Swiss mouse infected with Trypanosoma cruzi Tulahuen assessed as occurrence of dehydration at 150 mg/kg/day, po for 6 days per week until completion of 60 compound doses administered 5 days post infection measured 2 weeks post dose; assay type: organism-based; design: route oral; settings: in vivo, 336 h
Mus musculus [9] = assay: Toxicity in Trypanosoma cruzi Tulahuen infected in Swiss mouse assessed as changes in liver SGOT enzyme levels at 150 mg/kg/day, po for 6 days per week until completion of 60 compound doses administered 5 days post infection […]; assay type: organism-based; design: route oral; settings: in vivo
Trypanosoma cruzi [10] = assay: as §1, with “liver” for “skeletal muscle”; assay type: functional, organism-based
Trypanosoma cruzi [11] = assay: Antimicrobial activity against Trypanosoma cruzi Tulahuen infected in Swiss mouse assessed as mouse mortality rate at 150 mg/kg/day, po for 6 days per week until completion of 60 compound doses administered 5 days post infection; assay type: functional
Trypanosoma cruzi [12] = assay: Antimicrobial activity against Trypanosoma cruzi Tulahuen infected in Swiss mouse assessed as parasite DNA level at 60 mg/kg/day, po for 6 days per week until completion of 60 compound doses administered 5 days post infection measured 30 days post dose by PCR amplification method; assay type: functional
Trypanosoma cruzi [13] = assay: as §2, with “in” for “in blood”, “specific antibodies” for “load”, “60” for “150”, “infection measured 45 days post dose by ELISA based serological study” for “infection”; assay type: functional, organism-based
Trypanosoma cruzi [14] = assay: Antimicrobial activity against Trypanosoma cruzi Tulahuen infected in Swiss mouse assessed as mouse mortality at 60 mg/kg/day, po for 6 days per week until completion of 60 compound doses administered 5 days post infection; assay type: functional
Trypanosoma cruzi [15] = assay: (§3) Antimicrobial activity against Trypanosoma cruzi Tulahuen infected in Swiss mouse assessed as reduction in parasite specific antibodies at 60 mg/kg/day, po for 6 days per week until completion of 60 compound doses administered 5 days post infection measured 180 days post dose by ELISA based serological study; assay type: functional; design: scale not given: the % may be the effect or the level left
Mus musculus [16] = assay: Toxicity in Trypanosoma cruzi Tulahuen infected in Swiss mouse assessed as changes in liver SGOT enzyme levels at 60 mg/kg/day, po for 6 days per week until completion of 60 compound doses administered 5 days post infection […]; assay type: organism-based; design: route oral; settings: in vivo
Trypanosoma cruzi [17] = assay: as §1, with “liver” for “skeletal muscle”, “60” for “150”; assay type: functional, organism-based
Trypanosoma cruzi [18] = assay: Antimicrobial activity against Trypanosoma cruzi Tulahuen infected in Swiss mouse assessed as parasite DNA level at 60 mg/kg/day, po for 6 days per week until completion of 60 compound doses administered 5 days post infection measured 180 days post dose by PCR amplification method; assay type: functional
Trypanosoma cruzi [19] = assay: Antimicrobial activity against Trypanosoma cruzi Tulahuen infected in Swiss mouse assessed as reduction in blood parasite load at 60 mg/kg/day, po for 6 days per week until completion of 60 compound doses administered 5 days post infection; assay type: functional, organism-based
Trypanosoma cruzi [20] = assay: as §1, with “60” for “150”; assay type: functional, organism-based
Trypanosoma cruzi [21] = assay: as §3, with “at 150” for “at 60”; assay type: functional; design: scale not given: the % may be the effect or the level left

NC(=O)N/N=C/c1ccc([N+](=O)[O-])o1 [NITROFURAZONE]
Activity (Trypanosoma cruzi [1]): Active | Activity (Trypanosoma cruzi [2]): 0% | Activity (Mus musculus [3]): Toxic | Activity (Trypanosoma cruzi [4]): Active | Activity (Mus musculus [5]): Toxic | Activity (Trypanosoma cruzi [6]): 66.6% | Activity (Trypanosoma cruzi [7]): Active | Activity (Mus musculus [8]): Toxic | Activity (Mus musculus [9]): Non-toxic | Activity (Trypanosoma cruzi [10]): Active | Activity (Trypanosoma cruzi [11]): 75%

O=C(Cn1ccnc1[N+](=O)[O-])NCc1ccccc1 [BENZNIDAZOLE]
Activity (Trypanosoma cruzi [12]): 0% | Activity (Trypanosoma cruzi [13]): Active | Activity (Trypanosoma cruzi [14]): 33.3% | Activity (Trypanosoma cruzi [15]): 50% | Activity (Mus musculus [16]): Non-toxic | Activity (Trypanosoma cruzi [17]): Active | Activity (Trypanosoma cruzi [18]): 0% | Activity (Trypanosoma cruzi [19]): Active | Activity (Trypanosoma cruzi [20]): Active

O=C(NCO)N/N=C/c1ccc([N+](=O)[O-])o1 [HYDROXYMETHYLNITROFURAZONE]
Activity (Trypanosoma cruzi [1]): Active | Activity (Trypanosoma cruzi [21]): 30% | Activity (Trypanosoma cruzi [2]): 0% | Activity (Trypanosoma cruzi [4]): Active | Activity (Trypanosoma cruzi [6]): 10% | Activity (Trypanosoma cruzi [7]): Active | Activity (Mus musculus [9]): Non-toxic | Activity (Trypanosoma cruzi [10]): Active | Activity (Trypanosoma cruzi [11]): 16%
